Source: US20230106760A1, “ANTIBACTERIAL AND ANTIFUNGAL POLYKETIDES FROM ENVIRONMENTAL AMYCOLATOPSIS SPP” (The United States of America, as represented by the …, priority 2020, published 2023)
Values after ≈ are worked out from the molar mass of the structure shown.

Key:
[1] = system: S. aureus ATCC 29213; assay: Bactericidal activity: broth cultures with compound plated onto TSA without antibiotic; format: cell-based, Staphylococcus aureus; settings: for MIC: Staphylococcus aureus, ATCC29213
Procedure: (§1) The growth conditions were adapted from the CLSI protocols for broth dilution susceptibility assays. A culture of S. aureus ATCC 29213 was diluted with MHII broth to an inoculum of—5×10^5 CFU/mL. Cultures were grown in 100 μL in round-bottom 96-well plates with increasing concentrations of test or control compound. Plates were gently rocked at 37° C. overnight and then 50 μL of each culture was spread onto TSA plates without antibiotic. The plates were incubated at 37° C. overnight and then examined for bacterial growth. Similarly, an inoculum of C. albicans ATCC 28517 or C. auris ATCC MYA-5001 was prepared in RPMI-1640 with 165 mM MOPS at 0.5×10^3-2.5×10^3 CFU/mL. Cultures were grown in 200 μL in round-bottom 96-well plates with increasing concentrations of test or control compound. Plates were gently rocked at 35° C. overnight and then 50 μL of each culture was spread onto Sabouraud dextrose agar (SDA) plates without compound. The plates were incubated at 35° C. overnight and then examined for fungal growth.
(§2) After treatment with concentrations of compound 2 at or nearing the MIC, no viable organism could be recovered.
(§3) FIG. 19-20 show bactericidal and fungicidal activities of compound 2. FIG. 19A-C show the bactericidal activity of compound 2 against S. aureus ATCC 29213. […] FIG. 20A-B show the fungicidal activity of compound 2.

[2] = system: MRSA, methicillin-resistant Sa ATCC 43300; assay: MIC, CLSI broth dilution susceptibility assay; format: cell-based, Staphylococcus aureus; settings: for Minimum Inhibitory Concentration (MIC): MRSA ATCC 43300
Procedure: (§4) The compounds were assayed against Gram-positive bacteria Staphylococcus aureus (Sa), methicillin-resistant Sa (MRSA), Enterococcus faecalis, and Vancomycin-resistant E. faecalis; the Gram-negative bacteria Escherichia coli and Pseudomonas aeruginosa; and the fungi Candida albicans and Amphotericin B-resistant C. albicans.
as §1

[3] = system: Pseudomonas aeruginosa ATCC 27853; assay: MIC, CLSI broth dilution susceptibility assay; format: cell-based
Procedure: as §4, §1

[4] = system: Enterococcus faecalis ATCC 29212; assay: MIC, CLSI broth dilution susceptibility assay; format: cell-based; settings: for Minimum Inhibitory Concentration (MIC): Enterococcus faecalis ATCC 29212
Procedure: as §4, §1

[5] = system: Candida albicans ATCC 28517; assay: MIC, CLSI broth dilution susceptibility assay; format: cell-based; settings: for Minimum Inhibitory Concentration (MIC): Candida albicans ATCC 28517
Procedure: as §4, §1

[6] = system: Escherichia coli ATCC 25922; assay: MIC, CLSI broth dilution susceptibility assay; format: cell-based
Procedure: as §4, §1

[7] = system: Candida auris ATCC MYA-5001; assay: MIC, CLSI broth dilution susceptibility assay; format: cell-based; settings: for Minimum Inhibitory Concentration (MIC): Candida auris ATCC MYA-5001
Procedure: as §4, §1

[8] = system: Staphylococcus aureus (Sa) ATCC 29213; assay: MIC, CLSI broth dilution susceptibility assay; format: cell-based; settings: for Minimum Inhibitory Concentration (MIC): Staphylococcus aureus ATCC 29213
Procedure: as §4, §1

[9] = system: Amphotericin B-resistant C. albicans ATCC 200955; format: cell-based
Procedure: as §4, §1

[10] = system: Vancomycin-resistant E. faecalis ATCC 51299; assay: MIC, CLSI broth dilution susceptibility assay; format: cell-based, Enterococcus faecalis
Procedure: as §4, §1

[11] = system: Amycolatopsis glycosyltransferase; assay: Glycosyltransferase assay (substrate specificity); format: biochemical, Amycolatopsis sp. F10; settings: PBS, 500 μM UDP-glucose, 100 μM substrate, 30° C., 2 to 30 min; HPLC UV 254 nm or MS
Procedure: Glycosyltransferase expression vector cloning: An expression vector pET28b-gt was constructed by cloning the glycosyltransferase gene into pET28b (Novagen) with a C-terminal 6-His tag using the NEBuilder HiFi DNA Assembly kit (New England Biolabs). The glycosyltransferase gene was PCR amplified from F10 genomic DNA with primers that appended 5′ and 3′ overhangs homologous to the pET28b multiple cloning site. The linearized pET28b vector was prepared by restriction enzyme digestion with NcoI and XhoI. After cloning and confirmation by Sanger sequencing, pET28b-gt was transformed into E. coli BL21(DE3) for protein expression. The expression vector pET28b-gt-H15A was created from pET28b-gt with site-directed mutagenesis using overlapping primers and the QuikChange II kit.
Glycosyltransferase recombinant protein purification: An overnight culture of the glycosyltransferase expression strain in Luria-Bertani broth (LB) was used to inoculate 2 L LB with a 1:100 dilution (v/v). The culture was grown at 37° C. to OD600=0.5-0.7 and 0.1 mM isopropyl β-d-1-thiogalactopyranoside (IPTG) was added to induce protein expression for 4 hours. Cells were harvested by centrifugation, suspended in 20 mL phosphate-buffered saline (PBS) and stored at −80° C. For purification, the cells were thawed, lysed (lysozyme, DNase, MgCl2, phenylmethylsulfonyl fluoride (PMSF), and sonication), and cellular debris was removed by centrifugation. The glycosyltransferase was purified from the clarified lysate in two chromatographic steps on an AKTA Pure 25 FPLC. […] The eluted fractions containing the glycosyltransferase were confirmed by SDS-PAGE, pooled, and concentrated and buffer exchanged to remove imidazole in a 10000 Da MW centrigual filter device. The sample was run on a HiLoad Superdex 75 pg 16/600 size exclusion column with 50 mM HEPES pH 6.8/50 mM NaCl/10% glycerol. Protein purity was confirmed by SDS-PAGE. The purified glycosyltransferase was concentrated and flash frozen in aliquots at […]. […]

[12] = system: C. albicans ATCC 28517; assay: Fungicidal activity: broth cultures with compound plated onto SDA without compound; format: cell-based, Candida albicans
Procedure: as §1, §2, §3

[13] = system: C. auris ATCC MYA-5001; assay: as above; format: cell-based, Candida auris
Procedure: as §1, §2, §3

[14] = S. aureus ATCC 29213, FIG. 19 bactericidal experiment
[15] = at or nearing the MIC no viable organism could be recovered

SMILES: O=C(N[C@H](CO)[C@H](O)c1ccc([N+](=O)[O-])cc1)C(Cl)Cl [chloramphenicol, reference compound]
- MIC [1, 14]: 8 µg/mL (≈ 24.8 µM)

SMILES: CC/C=C/C=C/C=C/C(O)CC1(O)OC(CC(O)C(O)C(O)C(O)C(O)C(C)C(O)C(C)C(O)CC(O)CC(O)CC(O)C(C)C(O)C(C)C(O)C(C)C(O)C(CC(C)CC(C)/C=C(C)/C(O)=C2/C(=O)C(C)N(C)C2=O)OC2OC(CO)C(O)C(O)C2O)C(O)C(O)C1O (stereo not shown) [Compound 1]
- Minimum Inhibitory Concentration (MIC) [2]: >128 micrograms/mL
- Minimum Inhibitory Concentration (MIC) [3]: >128 micrograms/mL
- Minimum Inhibitory Concentration (MIC) [4]: >128 micrograms/mL
- Minimum Inhibitory Concentration (MIC) [5]: >128 micrograms/mL
- Minimum Inhibitory Concentration (MIC) [6]: >128 micrograms/mL
- Minimum Inhibitory Concentration (MIC) [7]: >128 micrograms/mL
- Minimum Inhibitory Concentration (MIC) [8]: >128 micrograms/mL
- Minimum Inhibitory Concentration (MIC) [9]: >128 micrograms/mL
- Minimum Inhibitory Concentration (MIC) [10]: >128 micrograms/mL

SMILES: CC[C@H]1OC(=O)[C@H](C)[C@@H](O[C@H]2C[C@@](C)(OC)[C@@H](O)[C@H](C)O2)[C@H](C)[C@@H](O[C@@H]2O[C@H](C)C[C@H](N(C)C)[C@H]2O)[C@](C)(O)C[C@@H](C)C(=O)[C@H](C)[C@@H](O)[C@]1(C)O [erythromycin]
- Glycosyltransferase activity on the substance as substrate [11]: no activity

SMILES: Cc1onc(-c2ccccc2)c1C(=O)N[C@@H]1C(=O)N2[C@@H]1SC(C)(C)[C@@H]2C(=O)O [oxacillin, reference compound]
- MIC [1, 14]: 2 µg/mL (≈ 4.98 µM)
- MIC, antibiotic control ([8]; S. aureus, footnote control): S. aureus: oxacillin = 0.25-0.5 ug/mL

SMILES: OC(Cn1cncn1)(Cn1cncn1)c1ccc(F)cc1F [fluconazole, reference compound]
- MIC, antibiotic control ([7]; C. auris, footnote control): C. auris: fluconazole = 1 ug/mL

SMILES: C[C@@H]1[C@H](O)[C@@H](C)/C=C/C=C/C=C/C=C/C=C/C=C/C=C/[C@H](O[C@@H]2O[C@H](C)[C@@H](O)[C@H](N)[C@@H]2O)C[C@@H]2O[C@](O)(C[C@@H](O)C[C@@H](O)[C@H](O)CC[C@@H](O)C[C@@H](O)CC(=O)O[C@H]1C)C[C@H](O)[C@H]2C(=O)O [amphotericin B, reference compound]
- MIC, antibiotic control ([5]; C. albicans, footnote control): C. albicans: amphotericin B = 2 ug/mL

SMILES: CN[C@H](CC(C)C)C(=O)N[C@H]1C(=O)N[C@@H](CC(N)=O)C(=O)N[C@H]2C(=O)N[C@H]3C(=O)N[C@H](C(=O)N[C@H](C(=O)O)c4cc(O)cc(O)c4-c4cc3ccc4O)[C@H](O)c3ccc(c(Cl)c3)Oc3cc2cc(c3O[C@@H]2O[C@H](CO)[C@@H](O)[C@H](O)[C@H]2O[C@H]2C[C@](C)(N)[C@H](O)[C@H](C)O2)Oc2ccc(cc2Cl)[C@H]1O [vancomycin, reference compound]
- MIC, antibiotic control ([2]; MRSA, footnote control): MRSA: vancomycin = 0.5-1 ug/mL
- MIC, antibiotic control ([4]; E. faecalis, footnote control): E. faecalis: vancomycin = 2 ug/mL

SMILES: CC/C=C/C=C/C=C/C(O)CC1(O)OC(CC(O)C(O)C(O)C(O)C(O)C(C)C(O)C(C)C(O)CC(O)CC(O)CC(O)C(C)C(O)C(C)C(O)C(C)C(O)C(O)CC(C)CC(C)/C=C(C)/C(O)=C2/C(=O)C(C)N(C)C2=O)C(O)C(O)C1O (stereo not shown) [Compound 2]
- Minimum Inhibitory Concentration (MIC) [2]: 2 micrograms/mL
- MIC in the experiment ([12]; C. albicans ATCC 28517, FIG. 20A fungicidal experiment): 8 µg/mL (≈ 6.7 µM)
- Mode of action against C. albicans (fungicidal) [12, 15]: fungicidal
- MIC in the experiment ([13]; C. auris ATCC MYA-5001, FIG. 20B fungicidal experiment): 16 µg/mL (≈ 13.4 µM)
- Mode of action against C. auris (fungicidal) [13, 15]: fungicidal
- Glycosyltransferase activity on the substance as substrate [11]: complete conversion
- MIC in the experiment [1, 14]: 2 µg/mL (≈ 1.67 µM)
- Mode of action against S. aureus (bactericidal) [1, 15]: bactericidal
- Minimum Inhibitory Concentration (MIC) [3]: >128 micrograms/mL
- Minimum Inhibitory Concentration (MIC) [4]: 8 micrograms/mL
- Minimum Inhibitory Concentration (MIC) [5]: 8 micrograms/mL
- Minimum Inhibitory Concentration (MIC) [6]: >128 micrograms/mL
- Minimum Inhibitory Concentration (MIC) [7]: 16 micrograms/mL
- Minimum Inhibitory Concentration (MIC) [8]: 2 micrograms/mL
- Minimum Inhibitory Concentration (MIC) [9]: 8 micrograms/mL
- Minimum Inhibitory Concentration (MIC) [10]: 8 micrograms/mL

SMILES: CC[C@H]1OC(=O)C[C@@H](O)[C@H](C)[C@@H](O[C@@H]2O[C@H](C)[C@@H](O[C@H]3C[C@@](C)(O)[C@@H](O)[C@H](C)O3)[C@H](N(C)C)[C@H]2O)[C@@H](CC=O)C[C@@H](C)C(=O)/C=C/C(C)=C/[C@@H]1CO[C@@H]1O[C@H](C)[C@@H](O)[C@@H](OC)[C@H]1OC [tylosin]
- Glycosyltransferase activity on the substance as substrate [11]: no activity
